Measured values published in patent US7135475B2, “Amide substituted xanthine derivatives” (Hoffmann-La Roche Inc., priority 2002, dated 2006).

Target: T1, recombinant human cytosolic PEPCK (Homo sapiens, UniProt P35558)
T1 sequence (P35558 1-622): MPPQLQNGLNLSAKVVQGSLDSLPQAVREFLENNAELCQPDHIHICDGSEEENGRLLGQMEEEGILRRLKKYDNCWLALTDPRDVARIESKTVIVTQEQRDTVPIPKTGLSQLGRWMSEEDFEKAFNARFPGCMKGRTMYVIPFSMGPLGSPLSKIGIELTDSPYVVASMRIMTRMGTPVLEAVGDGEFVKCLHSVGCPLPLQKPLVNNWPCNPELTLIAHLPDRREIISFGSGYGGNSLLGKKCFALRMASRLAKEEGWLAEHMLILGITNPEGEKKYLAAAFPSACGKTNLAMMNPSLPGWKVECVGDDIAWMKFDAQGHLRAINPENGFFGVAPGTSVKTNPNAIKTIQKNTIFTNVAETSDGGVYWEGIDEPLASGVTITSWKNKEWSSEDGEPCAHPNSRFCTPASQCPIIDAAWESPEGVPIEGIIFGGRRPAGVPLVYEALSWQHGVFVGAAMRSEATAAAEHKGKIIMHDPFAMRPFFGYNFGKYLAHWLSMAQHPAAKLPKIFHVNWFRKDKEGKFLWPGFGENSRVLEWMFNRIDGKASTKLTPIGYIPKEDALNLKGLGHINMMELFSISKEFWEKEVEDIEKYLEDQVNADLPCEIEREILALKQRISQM
Experiment: PEPCK enzyme assay (coupled pyruvate kinase/lactate dehydrogenase, absorbance at 340)
Format: biochemical
Conditions: recombinant human cytosolic GST-PEPCK; GTP and OAA at 3 fold and 10 fold Km; final DMSO 10%; room temperature, twenty minutes; read-out: In vitro IC50
Description: E. coli cells expressing GST-PEPCK were suspended in 5 volumes of lysis buffer (50 mM Tris-hydroxymethyl aminomethyl (TRIS), 150 mM sodium chloride (NaCl), 10 mM ethylene-diametetraacetic acid (EDTA), 5 mM dithiothreitol(DTT), 1% Nonidet P-40, pH 7.4) in the presence of protease inhibitors, incubated with lysozyme at 200 micrograms/ml for 30 min. at room temperature, and sonicated 4×30 seconds at 4 degrees C. After centrifugation at 12,000×g for 20 min. to remove insoluble material, the supernatant was loaded onto glutathione Sepharose (Pharmacia), washed with lysis buffer followed by washing with lysis buffer in the absence of NP-40. GST-PEPCK was eluted with the same buffer containing 20 mM glutathione. The eluted protein was concentrated and dialyzed against 25 mM Hepes(N-[2-hydroxyethyl]piperazine-N′[2-ethanesulfonic acid), 150 mM NaCl, 2.5 mM EDTA, 5 mM DTT, 30% glycerol, pH 7.4, and stored at −20 ° C.
The inhibitory effect of the compounds of the present invention on PEPCK enzymatic activity was determined using recombinant human cytosolic PEPCK, expressed and purified from E.coli as a GST-fusion. Guanosine triphosphate (GTP) and manganese dependent PEPCK enzyme activity catalyzed the decarboxylation of oxalacetate leading to the formation of guanosine diphosphate (GDP) and phosphoenol pyruvate (PEP). This reaction is coupled to pyruvate kinase and lactate dehydrogenase catalyzed reactions and the overall reaction rate determined by measuring the change in absorbance at 340 nm (Chang, H. C. and Lane M. D., J. Biol.Chem. 241:2413–2420, 1966). The following modifications were made to the protocol: 2.5 μg of recombinant, human cytosolic glutathione-S-transferase (GST)-PEPCK was added to a reaction mixture at room temperature which contained 0.3 mM GTP, 0.3 mM oxaloacetate (OAA), 3 mM magnesium chloride (MgCl2), 0.075 mM manganese chloride (MnCl2), 30 mM potassium phosphates (KPO4), pH 7.6, 1 mM dithiothreitol (DTT), 0.2 mM adenosine diphosphate (ADP), 1 mM nicotinamide adenine dinucleotide, reduced form (NADH), 0.9 Units/ml each of pyruvate kinase and lactate dehydrogenase and 1 mg/ml bovine serum albumin (BSA). Test compounds were added such that final concentration of DMSO was 10%. Reactions were run for twenty minutes.
Km values for GTP and OAA were determined according to Michelis-Menton conditions as described in Cornish-Bowden (Fundamentals of Enzyme Kinetics, 1995) in essentially the coupled assay conditions described above. […] Test compounds were added to reactions over a range of concentrations and IC50's were calculated from plots of inhibitor concentration versus enzyme rate. This method of determination of IC50 values is equally applicable to calculations based on PEPCK cellular assay.
The in vitro biological activity of several representative preferred compounds of the present invention in the foregoing PEPCK enzymatic assay is presented in Table 1.

Going from `CC(=O)Nc1ccc(Cc2nc3c([nH]2)c(=O)n(Cc2ccccc2F)c(=O)n3C[C@@H]2C[C@@H]2C(=O)O)cc1` (relative stereo) [Example 47, 2-[8-(4-Acetylamino-benzyl)-1-(2-fluorobenzyl)-2,6-dioxo-1,2,6,7-tetrahydro-purin-3-ylmethyl]-cyclopropanecarboxylic acid] to `CC(=O)Nc1ccc(Cc2nc3c([nH]2)c(=O)n(Cc2ccccc2F)c(=O)n3CC2CC2)cc1` [Example 42, N-{4-[3-Cyclopropylmethyl-1-(2-fluorobenzyl)-2,6-dioxo-2,3,6,7-tetrahydro-1H-purin-8-ylmethyl]-phenyl}-acetamide], the IC50 rises from 0.56 µM to 0.93 µM (1.7-fold). The first is the more potent here.

`CC(=O)Nc1cccc(C(=O)N(C)c2ccc(Cc3nc4c([nH]3)c(=O)n(Cc3ccccc3F)c(=O)n4CC3CC3)cc2)n1` [Example 79, 6-Acetylamino-pyridine-2-carboxylic acid {4-[3-cyclopropylmethyl-1-(2-fluorobenzyl)-2,6-dioxo-2,3,6,7-tetrahydro-1H-purin-8-ylmethyl]-phenyl}-methyl-amide] and `CC(=O)Nc1ccc(C(=O)N(C)c2ccc(Cc3nc4c([nH]3)c(=O)n(Cc3ccccc3F)c(=O)n4CC3CC3)cc2)cn1` [Example 98, 6-Acetylamino-N-{4-[3-cyclopropylmethyl-1-(2-fluorobenzyl)-2,6-dioxo-2,3,6,7-tetrahydro-1H-purin-8-ylmethyl]-phenyl}-N-methyl-nicotinamide] are within 1.5-fold of each other in IC50: 0.56 µM for the first, 0.44 µM for the second.

`Cc1cncc(C(=O)N(C)c2ccc(Cc3nc4c([nH]3)c(=O)n(Cc3ccccc3F)c(=O)n4CC3CC3)cc2)c1` [Example 85, N-{4-[3-cyclopropylmethyl-1-(2-fluorobenzyl)-2,6-dioxo-2,3,6,7-tetrahydro-1H-purin-8-ylmethyl]-phenyl}-5,N-dimethyl-nicotinamide] and `CN(C(=O)c1cncnc1)c1ccc(Cc2nc3c([nH]2)c(=O)n(Cc2ccccc2F)c(=O)n3CC2CC2)cc1` [Example 96, Pyrimidine-5-carboxylic acid {4-[3-cyclopropylmethyl-1-(2-fluorobenzyl)-2,6-dioxo-2,3,6,7-tetrahydro-1H-purin-8-ylmethyl]-phenyl}-methyl-amide] are within 1.5-fold of each other in IC50: 0.4 µM for the first, 0.38 µM for the second.

`Cc1ccc(C(=O)N(C)c2ccc(Cc3nc4c([nH]3)c(=O)n(Cc3ccccc3F)c(=O)n4CC3CC3)cc2)cn1` [Example 86, N-{4-[3-cyclopropylmethyl-1-(2-fluorobenzyl)-2,6-dioxo-2,3,6,7-tetrahydro-1H-purin-8-ylmethyl]-phenyl}-6,N-dimethyl-nicotinamide] and `Cc1ccc(C(=O)N(C)c2ccc(Cc3nc4c([nH]3)c(=O)n(Cc3ccccc3F)c(=O)n4CC3CCC3)cc2)cn1` [Example 88, N-{4-[3-Cyclobutylmethyl-1-(2-fluorobenzyl)-2,6-dioxo-2,3,6,7-tetrahydro-1H-purin-8-ylmethyl]-phenyl}-6,N-dimethyl-nicotinamide] are within 1.5-fold of each other in IC50: 0.42 µM for the first, 0.34 µM for the second.

`COc1ccc(C(=O)N(C)c2ccc(Cc3nc4c([nH]3)c(=O)n(Cc3ccccc3F)c(=O)n4CC3CC3)cc2)c(OC)n1` [Example 90, N-{4-[3-cyclopropylmethyl-1-(2-fluorobenzyl)-2,6-dioxo-2,3,6,7-tetrahydro-1H-purin-8-ylmethyl]-phenyl}-2,6-dimethoxy-N-methyl-nicotinamide] and `Cc1ncccc1C(=O)N(C)c1ccc(Cc2nc3c([nH]2)c(=O)n(Cc2ccccc2F)c(=O)n3CC2CC2)cc1` [Example 95, N-{4-[3-Cyclopropylmethyl-1-(2-fluorobenzyl)-2,6-dioxo-2,3,6,7-tetrahydro-1H-purin-8-ylmethyl]-phenyl}-2,N-dimethyl-nicotinamide] are within 1.5-fold of each other in IC50: 0.34 µM for the first, 0.37 µM for the second.

`CN(C(=O)Cc1cccnc1)c1ccc(Cc2nc3c([nH]2)c(=O)n(Cc2ccccc2F)c(=O)n3CC2CC2)cc1` [Example 91, N-{4-[3-cyclopropylmethyl-1-(2-fluorobenzyl)-2,6-dioxo-2,3,6,7-tetrahydro-1H-purin-8-ylmethyl]-phenyl}-N-methyl-2-pyridin-3-yl-acetamide] and `CN(C(=O)c1cccnc1)c1ccc(Cc2nc3c([nH]2)c(=O)n(Cc2ccccc2F)c(=O)n3CC2CC2)cc1` [Example 97, N-{4-[3-Cyclopropylmethyl-1-(2-fluorobenzyl)-2,6-dioxo-2,3,6,7-tetrahydro-1H-purin-8-ylmethyl]-phenyl}-N-methyl-nicotinamide] are within 1.5-fold of each other in IC50: 0.41 µM for the first, 0.42 µM for the second.

`CN(C(=O)c1ccc(C#N)nc1)c1ccc(Cc2nc3c([nH]2)c(=O)n(Cc2ccccc2F)c(=O)n3CC2CC2)cc1` [Example 92, 6-Cyano-N-{4-[3-cyclopropylmethyl-1-(2-fluorobenzyl)-2,6-dioxo-2,3,6,7-tetrahydro-1H-purin-8-ylmethyl]-phenyl}-N-methyl-nicotinamide] and `CN(C(=O)c1ccc(N)nc1)c1ccc(Cc2nc3c([nH]2)c(=O)n(Cc2ccccc2F)c(=O)n3CC2CC2)cc1` [Example 94, 6-Amino-N-{4-[3-cyclopropylmethyl-1-(2-fluorobenzyl)-2,6-dioxo-2,3,6,7-tetrahydro-1H-purin-8-ylmethyl]-phenyl}-N-methyl-nicotinamide] are within 1.5-fold of each other in IC50: 0.44 µM for the first, 0.34 µM for the second.

Compared with `CN(C(=O)c1cccnc1N)c1ccc(Cc2nc3c([nH]2)c(=O)n(Cc2ccccc2F)c(=O)n3CC2CC2)cc1` [Example 93, 2-Amino-N-{4-[3-cyclopropylmethyl-1-(2-fluorobenzyl)-2,6-dioxo-2,3,6,7-tetrahydro-1H-purin-8-ylmethyl]-phenyl}-N-methyl-nicotinamide], `CN(C(=O)c1cccnc1O)c1ccc(Cc2nc3c([nH]2)c(=O)n(Cc2ccccc2F)c(=O)n3CC2CC2)cc1` [Example 101, N-{4-[3-Cyclopropylmethyl-1-(2-fluorobenzyl)-2,6-dioxo-2,3,6,7-tetrahydro-1H-purin-8-ylmethyl]-phenyl}-2-hydroxy-N-methyl-nicotinamide] is 2.2-fold higher in IC50: 0.28 µM for the first, 0.63 µM for the second.

`CN(C(=O)c1cnccn1)c1ccc(Cc2nc3c([nH]2)c(=O)n(Cc2ccccc2F)c(=O)n3CC2CC2)cc1` [Example 99, Pyrazine-2-carboxylic acid {4-[3-cyclopropylmethyl-1-(2-fluorobenzyl)-2,6-dioxo-2,3,6,7-tetrahydro-1H-purin-8-ylmethyl]-phenyl}-methyl-amide] and `CN(C(=O)c1ccc(O)nc1)c1ccc(Cc2nc3c([nH]2)c(=O)n(Cc2ccccc2F)c(=O)n3CC2CC2)cc1` [Example 100, N-{4-[3-Cyclopropylmethyl-1-(2-fluorobenzyl)-2,6-dioxo-2,3,6,7-tetrahydro-1H-purin-8-ylmethyl]-phenyl}-6-hydroxy-N-methyl-nicotinamide] are within 1.5-fold of each other in IC50: 0.46 µM for the first, 0.55 µM for the second.

`Cc1nn(C)c(C)c1C(=O)N(C)c1ccc(Cc2nc3c([nH]2)c(=O)n(Cc2ccccc2F)c(=O)n3CC2CC2)cc1` [Example 102, 1,3,5-Trimethyl-1H-pyrazole-4-carboxylic acid {4-[3-cyclopropylmethyl-1-(2-fluorobenzyl)-2,6-dioxo-2,3,6,7-tetrahydro-1H-purin-8-ylmethyl]-phenyl}-methyl-amide] and `Cc1nn(C)c(C)c1C(=O)C(=O)N(C)c1ccc(Cc2nc3c([nH]2)c(=O)n(Cc2ccccc2F)c(=O)n3CC2CC2)cc1` [Example 103, N-{4-[3-Cyclopropylmethyl-1-(2-fluorobenzyl)-2,6-dioxo-2,3,6,7-tetrahydro-1H-purin-8-ylmethyl]-phenyl}-N-methyl-2-oxo-2-(1,3,5-trimethyl-1H-pyrazol-4-yl)-acetamide] are within 1.5-fold of each other in IC50: 0.23 µM for the first, 0.25 µM for the second.
